Test results reported in patent US10253039B2, “Inhibitors of bacterial DNA gyrase with efficacy against gram-negative bacteria” (priority 2014, dated 2019).
≈ marks a conversion by molar mass, not a printed value.

System: Edwardsiella tarda
Experiment: MIC, microdilution in 96-well plates
Format: cell-based
Conditions: not given
Experimental: (§1) A microdilution method in 96-well plates was used and the MIC protocol established by the Clinical Laboratory Standards Institute was followed. From a growing subculture, a 1:10000 inoculum of each strain in Luria-Bertani media was prepared and aliquoted 100 μL in 4 columns of wells, except for the top row wells, which contained 200 μL of inoculum. A solution of gyramide C2 was aliquoted into 3 of the wells containing 200 μL and DMSO was added to the 4th well. The liquid in each of wells was mixed with a multi-channel pipet and 100 μL was transferred to the next well and mixed. The 2-fold dilution was continued down the 96-well plate until 100 μL was left, which was discarded. The plates were incubated at 37° C. with shaking for 16-18 hours. The MIC was determined as the lowest concentration that inhibited growth and had no turbidity by visual inspection.
(§2) Minimum inhibitory concentrations of various gyramide compounds against 20 strains of bacteria were determined using the procedure described above.

Row | Structure (SMILES) | MIC
1 | CC(C)Oc1ccc(CN2CC[C@@H](NS(=O)(=O)c3cc(C(F)(F)F)ccc3Cl)C2)cc1 [Compound 140] | > 8 µg/mL
2 | O=S(=O)(N[C@@H]1CCN(Cc2ccc(OC3CC3)cc2)C1)c1cnccc1Cl [Compound 169] | > 8 µg/mL

Same assay, conditions: D: Edwardsiella tarda

Row | Structure (SMILES) | MIC
3 | CC(C)Oc1ccc(CN2CC[C@@H](NS(=O)(=O)c3cc(F)cc(C(F)(F)F)c3)C2)cc1 [Compound 78] | > 8 µg/mL
4 | Cc1c(S(=O)(=O)N[C@@H]2CCN(Cc3ccc(OC(C)C)cc3)C2)sc2ccc(Cl)cc12 [Compound 83] | > 8 µg/mL
5 | N#Cc1cccc(S(=O)(=O)N[C@@H]2CCN(Cc3ccc(-c4cncnc4)cc3)C2)c1 [Compound 22] | > 8 µg/mL

System: E. coli BW25113
Experiment: MIC, microdilution in 96-well plates
Format: cell-based
Conditions: Escherichia coli, BW25113, B: E. coli BW25113; read-out: MIC
Experimental: as §1, §2

Row | Structure (SMILES) | MIC
6 | CC(C)Oc1ccc(CN2CC[C@@H](NS(=O)(=O)c3cc(F)cc(C(F)(F)F)c3)C2)cc1 [Compound 78] | > 8 µg/mL
7 | Cc1c(S(=O)(=O)N[C@@H]2CCN(Cc3ccc(OC(C)C)cc3)C2)sc2ccc(Cl)cc12 [Compound 83] | > 8 µg/mL
8 | N#Cc1cccc(S(=O)(=O)N[C@@H]2CCN(Cc3ccc(-c4cncnc4)cc3)C2)c1 [Compound 22] | > 8 µg/mL

Same assay, conditions: Escherichia coli, BW25113, E. coli BW25113; read-out: MIC

Row | Structure (SMILES) | MIC
9 | CC(C)Oc1ccc(CN2CC[C@@H](NS(=O)(=O)c3cc(C(F)(F)F)ccc3Cl)C2)cc1 [Compound 140] | > 8 µg/mL
10 | O=S(=O)(N[C@@H]1CCN(Cc2ccc(OC3CC3)cc2)C1)c1cnccc1Cl [Compound 169] | > 8 µg/mL

System: Streptococcus pyogenes
Experiment: MIC, 20-strain panel
Format: cell-based
Conditions: not given
Experimental: as §1, §2

Row | Structure (SMILES) | MIC
11 | CC(C)Oc1ccc(CN2CC[C@@H](NS(=O)(=O)c3cc(F)cc(C(F)(F)F)c3)C2)cc1 [Compound 78] | > 8 µg/mL
12 | Cc1c(S(=O)(=O)N[C@@H]2CCN(Cc3ccc(OC(C)C)cc3)C2)sc2ccc(Cl)cc12 [Compound 83] | 8 µg/mL (≈ 16.7 µM)
13 | N#Cc1cccc(S(=O)(=O)N[C@@H]2CCN(Cc3ccc(-c4cncnc4)cc3)C2)c1 [Compound 22] | > 8 µg/mL
14 | CC(C)Oc1ccc(CN2CC[C@@H](NS(=O)(=O)c3cc(C(F)(F)F)ccc3Cl)C2)cc1 [Compound 140] | > 8 µg/mL
15 | O=S(=O)(N[C@@H]1CCN(Cc2ccc(OC3CC3)cc2)C1)c1cnccc1Cl [Compound 169] | > 8 µg/mL

System: Klebsiella pneumoniae subsp. pneumoniae
Experiment: MIC, 20-strain panel
Format: cell-based
Conditions: E: Klebsiella pneumoniae subsp. pneumoniae
Experimental: as §1, §2

Row | Structure (SMILES) | MIC
16 | CC(C)Oc1ccc(CN2CC[C@@H](NS(=O)(=O)c3cc(F)cc(C(F)(F)F)c3)C2)cc1 [Compound 78] | > 8 µg/mL
17 | Cc1c(S(=O)(=O)N[C@@H]2CCN(Cc3ccc(OC(C)C)cc3)C2)sc2ccc(Cl)cc12 [Compound 83] | > 8 µg/mL
18 | N#Cc1cccc(S(=O)(=O)N[C@@H]2CCN(Cc3ccc(-c4cncnc4)cc3)C2)c1 [Compound 22] | > 8 µg/mL

Same assay, conditions: Klebsiella pneumoniae subsp. pneumoniae

Row | Structure (SMILES) | MIC
19 | CC(C)Oc1ccc(CN2CC[C@@H](NS(=O)(=O)c3cc(C(F)(F)F)ccc3Cl)C2)cc1 [Compound 140] | > 8 µg/mL
20 | O=S(=O)(N[C@@H]1CCN(Cc2ccc(OC3CC3)cc2)C1)c1cnccc1Cl [Compound 169] | > 8 µg/mL

System: Staphylococcus epidermidis
Experiment: MIC, 20-strain panel
Format: cell-based
Conditions: not given
Experimental: as §1, §2

Row | Structure (SMILES) | MIC
21 | CC(C)Oc1ccc(CN2CC[C@@H](NS(=O)(=O)c3cc(F)cc(C(F)(F)F)c3)C2)cc1 [Compound 78] | > 8 µg/mL
22 | Cc1c(S(=O)(=O)N[C@@H]2CCN(Cc3ccc(OC(C)C)cc3)C2)sc2ccc(Cl)cc12 [Compound 83] | 8 µg/mL (≈ 16.7 µM)
23 | N#Cc1cccc(S(=O)(=O)N[C@@H]2CCN(Cc3ccc(-c4cncnc4)cc3)C2)c1 [Compound 22] | > 8 µg/mL
24 | CC(C)Oc1ccc(CN2CC[C@@H](NS(=O)(=O)c3cc(C(F)(F)F)ccc3Cl)C2)cc1 [Compound 140] | > 8 µg/mL
25 | O=S(=O)(N[C@@H]1CCN(Cc2ccc(OC3CC3)cc2)C1)c1cnccc1Cl [Compound 169] | > 8 µg/mL

System: Shigella flexneri
Experiment: MIC, 20-strain panel
Format: cell-based
Conditions: not given
Experimental: as §1, §2

Row | Structure (SMILES) | MIC
26 | CC(C)Oc1ccc(CN2CC[C@@H](NS(=O)(=O)c3cc(C(F)(F)F)ccc3Cl)C2)cc1 [Compound 140] | > 8 µg/mL
27 | O=S(=O)(N[C@@H]1CCN(Cc2ccc(OC3CC3)cc2)C1)c1cnccc1Cl [Compound 169] | > 8 µg/mL

Same assay, conditions: G: Shigella flexneri

Row | Structure (SMILES) | MIC
28 | CC(C)Oc1ccc(CN2CC[C@@H](NS(=O)(=O)c3cc(F)cc(C(F)(F)F)c3)C2)cc1 [Compound 78] | > 8 µg/mL
29 | Cc1c(S(=O)(=O)N[C@@H]2CCN(Cc3ccc(OC(C)C)cc3)C2)sc2ccc(Cl)cc12 [Compound 83] | > 8 µg/mL
30 | N#Cc1cccc(S(=O)(=O)N[C@@H]2CCN(Cc3ccc(-c4cncnc4)cc3)C2)c1 [Compound 22] | > 8 µg/mL

System: E. coli MG1655
Experiment: MIC, 20-strain panel
Format: cell-based
Conditions: Escherichia coli, MG1655, A: E. coli MG1655; read-out: MIC
Experimental: as §1, §2

Row | Structure (SMILES) | MIC
31 | CC(C)Oc1ccc(CN2CC[C@@H](NS(=O)(=O)c3cc(F)cc(C(F)(F)F)c3)C2)cc1 [Compound 78] | > 8 µg/mL
32 | Cc1c(S(=O)(=O)N[C@@H]2CCN(Cc3ccc(OC(C)C)cc3)C2)sc2ccc(Cl)cc12 [Compound 83] | > 8 µg/mL
33 | N#Cc1cccc(S(=O)(=O)N[C@@H]2CCN(Cc3ccc(-c4cncnc4)cc3)C2)c1 [Compound 22] | > 8 µg/mL

Same assay, conditions: Escherichia coli, MG1655, E. coli MG1655; read-out: MIC

Row | Structure (SMILES) | MIC
34 | CC(C)Oc1ccc(CN2CC[C@@H](NS(=O)(=O)c3cc(C(F)(F)F)ccc3Cl)C2)cc1 [Compound 140] | > 8 µg/mL
35 | O=S(=O)(N[C@@H]1CCN(Cc2ccc(OC3CC3)cc2)C1)c1cnccc1Cl [Compound 169] | > 8 µg/mL

System: Staphylococcus saprophyticus subsp. saprophyticus
Experiment: MIC, 20-strain panel
Format: cell-based
Conditions: not given
Experimental: as §1, §2

Row | Structure (SMILES) | MIC
36 | CC(C)Oc1ccc(CN2CC[C@@H](NS(=O)(=O)c3cc(F)cc(C(F)(F)F)c3)C2)cc1 [Compound 78] | > 8 µg/mL
37 | Cc1c(S(=O)(=O)N[C@@H]2CCN(Cc3ccc(OC(C)C)cc3)C2)sc2ccc(Cl)cc12 [Compound 83] | > 8 µg/mL
38 | N#Cc1cccc(S(=O)(=O)N[C@@H]2CCN(Cc3ccc(-c4cncnc4)cc3)C2)c1 [Compound 22] | > 8 µg/mL
39 | CC(C)Oc1ccc(CN2CC[C@@H](NS(=O)(=O)c3cc(C(F)(F)F)ccc3Cl)C2)cc1 [Compound 140] | > 8 µg/mL
40 | O=S(=O)(N[C@@H]1CCN(Cc2ccc(OC3CC3)cc2)C1)c1cnccc1Cl [Compound 169] | > 8 µg/mL

System: Streptococcus agalactiae
Experiment: MIC, 20-strain panel
Format: cell-based
Conditions: not given
Experimental: as §1, §2

Row | Structure (SMILES) | MIC
41 | CC(C)Oc1ccc(CN2CC[C@@H](NS(=O)(=O)c3cc(F)cc(C(F)(F)F)c3)C2)cc1 [Compound 78] | > 8 µg/mL
42 | Cc1c(S(=O)(=O)N[C@@H]2CCN(Cc3ccc(OC(C)C)cc3)C2)sc2ccc(Cl)cc12 [Compound 83] | > 8 µg/mL
43 | N#Cc1cccc(S(=O)(=O)N[C@@H]2CCN(Cc3ccc(-c4cncnc4)cc3)C2)c1 [Compound 22] | > 8 µg/mL
44 | CC(C)Oc1ccc(CN2CC[C@@H](NS(=O)(=O)c3cc(C(F)(F)F)ccc3Cl)C2)cc1 [Compound 140] | > 8 µg/mL
45 | O=S(=O)(N[C@@H]1CCN(Cc2ccc(OC3CC3)cc2)C1)c1cnccc1Cl [Compound 169] | > 8 µg/mL

System: Staphylococcus aureus subsp. aureus
Experiment: MIC, 20-strain panel
Format: cell-based
Conditions: H: Staphylococcus aureus subsp. aureus, read-out: MIC
Experimental: as §1, §2

Row | Structure (SMILES) | MIC
46 | CC(C)Oc1ccc(CN2CC[C@@H](NS(=O)(=O)c3cc(F)cc(C(F)(F)F)c3)C2)cc1 [Compound 78] | > 8 µg/mL
47 | Cc1c(S(=O)(=O)N[C@@H]2CCN(Cc3ccc(OC(C)C)cc3)C2)sc2ccc(Cl)cc12 [Compound 83] | ~8 µg/mL (≈ 16.7 µM)
48 | N#Cc1cccc(S(=O)(=O)N[C@@H]2CCN(Cc3ccc(-c4cncnc4)cc3)C2)c1 [Compound 22] | > 8 µg/mL

Same assay, conditions: Staphylococcus aureus subsp. aureus, read-out: MIC

Row | Structure (SMILES) | MIC
49 | CC(C)Oc1ccc(CN2CC[C@@H](NS(=O)(=O)c3cc(C(F)(F)F)ccc3Cl)C2)cc1 [Compound 140] | > 8 µg/mL
50 | O=S(=O)(N[C@@H]1CCN(Cc2ccc(OC3CC3)cc2)C1)c1cnccc1Cl [Compound 169] | > 8 µg/mL

System: Salmonella enterica subsp. enterica typhimurium
Experiment: MIC, 20-strain panel
Format: cell-based
Conditions: F: Salmonella enterica subsp. enterica Typhimurium
Experimental: as §1, §2

Row | Structure (SMILES) | MIC
51 | CC(C)Oc1ccc(CN2CC[C@@H](NS(=O)(=O)c3cc(F)cc(C(F)(F)F)c3)C2)cc1 [Compound 78] | > 8 µg/mL
52 | Cc1c(S(=O)(=O)N[C@@H]2CCN(Cc3ccc(OC(C)C)cc3)C2)sc2ccc(Cl)cc12 [Compound 83] | > 8 µg/mL
53 | N#Cc1cccc(S(=O)(=O)N[C@@H]2CCN(Cc3ccc(-c4cncnc4)cc3)C2)c1 [Compound 22] | > 8 µg/mL

Same assay, conditions: Salmonella enterica subsp. enterica Typhimurium

Row | Structure (SMILES) | MIC
54 | CC(C)Oc1ccc(CN2CC[C@@H](NS(=O)(=O)c3cc(C(F)(F)F)ccc3Cl)C2)cc1 [Compound 140] | 4 µg/mL (≈ 8.39 µM)
55 | O=S(=O)(N[C@@H]1CCN(Cc2ccc(OC3CC3)cc2)C1)c1cnccc1Cl [Compound 169] | > 8 µg/mL

System: E. coli JW5503 (deltolC)
Experiment: MIC, 20-strain panel
Format: cell-based
Conditions: Escherichia coli, C: E. coli JW5503 (deltolC)
Experimental: as §1, §2

Row | Structure (SMILES) | MIC
56 | CC(C)Oc1ccc(CN2CC[C@@H](NS(=O)(=O)c3cc(F)cc(C(F)(F)F)c3)C2)cc1 [Compound 78] | ~8 µg/mL (≈ 17.4 µM)
57 | Cc1c(S(=O)(=O)N[C@@H]2CCN(Cc3ccc(OC(C)C)cc3)C2)sc2ccc(Cl)cc12 [Compound 83] | 8 µg/mL (≈ 16.7 µM)
58 | N#Cc1cccc(S(=O)(=O)N[C@@H]2CCN(Cc3ccc(-c4cncnc4)cc3)C2)c1 [Compound 22] | 8 µg/mL (≈ 19.1 µM)

Same assay, conditions: Escherichia coli, E. coli JW5503 (deltolC)

Row | Structure (SMILES) | MIC
59 | CC(C)Oc1ccc(CN2CC[C@@H](NS(=O)(=O)c3cc(C(F)(F)F)ccc3Cl)C2)cc1 [Compound 140] | < 0.0625 µg/mL
60 | O=S(=O)(N[C@@H]1CCN(Cc2ccc(OC3CC3)cc2)C1)c1cnccc1Cl [Compound 169] | > 8 µg/mL
